# Laboratory results taken from patent US12053452B2 (priority 2021, dated 2024).
# Key:
# Format in all cases: in vivo
# BTBR mice [1] = assay: Radiotelemetry of core temperature, BTBR
# Description: (§1) The radiotelemetry assay was conducted in adult male C57 and BTBR mice (n=6 per group) in a dedicated testing room where ambient light, sound, and human contact were tightly controlled.
# (§2) Prior to surgical implantation of radiotelemetry probes, mice received 3 mg/kg meloxicam (IP), and anesthesia was induced with 4% inhaled isoflurane and maintained with 1-3% isoflurane (as needed) throughout the procedure at a flow rate of 1.5 litres/minute. The abdominal area of each animal was treated with depilatory cream, then sanitized with 3 alternating scrubs with iodine and alcohol. A rostral-caudal cut approximately 1.5 cm in length was made with sterile skin scissors, providing access to the intraperitoneal cavity. A cylindrical glass-encapsulated radiotelemetry probe (model ER-4000 E-Mitter, Mini Mitter, Bend, OR, USA) was then inserted. These probes measure 15.5 mm×6.5 mm and weigh approximately 1 gram. Incisions were closed (skin layer and muscle layer separately) using reverse cutting 5-0 Vicryl absorbable sutures for the muscle layer and 5-0 nylon suture material for the skin layer. Surgeries were carried out at least 7 days before initiation of experimental conditions, allowing time for incisions to heal and for animals to recover normal body weights. Following surgery, all implanted mice were individually housed in Plexiglas cages within the telemetry room for the duration of all experiments. Implanted transmitters produce activity- and temperature-modulated signals which are sent to a receiver (model ER-4000 Receiver, Mini Mitter Co., Inc.) underneath each cage. Following use, telemetry probes were removed from carcasses, wiped with alcohol swabs, and stored in the disinfectant solution until re-use.
# (§3) At least 7 days after surgical implantation of radiotelemetry probes, mice in their individual home cages were placed atop a telemetry energizer/receiver, which powered probes and transmitted their data to an interfaced computer. Upon initiation of an experimental session, the computer collected two data updates from the probes at 5 min intervals: core temperature (in ° C.) on one channel, and locomotor counts (in arbitrary units, depending on the relative position of the probe atop the receiver) on the other. After at least 60 minutes of baseline data collection, mice were removed from their cages, injected with saline or a given dose of a specific drug, then returned to the home cage 24 hours of data collection.
# (§4) Food and water were always freely available in the home cage. Mice were injected with ascending doses of a given drug, with at least 48 hours separating doses. Because there are few studies of drug effects in BTBR mice, the first drug dose tested occasionally elicited unexpectedly large locomotor effects in these animals. In these cases, smaller drug doses were tested next, after a washout period of at least one full day.
# BTBR mice [2] = assay: Social novelty preference test, BTBR (autism spectrum disorder model); conditions: BTBR mice
# Description: (§5) This assay was conducted in adult male C57 and BTBR mice (n=6 per group) in a dedicated conditioning room where ambient light, sound, and human contact were tightly controlled. Social preference chambers consist of two polycarbonate boxes (13.5 cm wide×22.5 cm tall×31.0 cm deep), floored with rough-textured black ABS plastic, and connected to one another by a 1.25″ PVC T-junction. An infrared photobeam emitter/detector array is mounted at each intersection of the T-junction and each preference compartment, and as a mouse traversed the apparatus, it would break the photobeam upon entry to or exit from each preference compartment. Beam breaks started or stopped a counter on an interfaced computer, allowing automated collection of time spent in each compartment. At the end of each test, data were reported as time (in seconds) spent in each compartment, the number of entries into each compartment, and the average time spent in each compartment following an entry. Social preference tests were conducted in an iterative manner, with each test subject completing four distinct phases as described below. Between testing sessions, chambers were sanitized by wiping the insides with a disinfectant product provided by the UAMS Department of Laboratory Animal Medicine. At the end of the week (upon completion of all phases of the procedure), each apparatus was disassembled and all parts were sanitized. No food or water were available during social preference sessions, but were available in the home cage immediately afterwards.
# A single social novelty preference session occurred the day after the sociability test, where one compartment contained a wire mesh cup with the same NIH Swiss mouse from the previous day inside (referred to now as the “familiar” mouse) while the other compartment contained a new male NIH Swiss stranger mouse inside the cup which previously contained the dummy mouse during the sociability test. […]
# C57 mice [3] = assay: Social novelty preference test, C57
# Description: as §5
# A single social novelty preference session occurred the day after the sociability test, where one compartment contained a wire mesh cup with the same NIH Swiss mouse from the previous day inside (referred to now as the “familiar” mouse) while the other compartment contained a new male NIH Swiss stranger mouse inside the cup which previously contained the dummy mouse during the sociability test. […] The position of the now familiar NIH Swiss mouse (left or right compartment) remained the same for each subject as during the sociability test the day before, thereby counterbalancing the position of the new NIH Swiss stranger mouse across subjects. As before, the new NIH Swiss stranger mice were housed separately from the experimental subjects (C57 and BTBR mice) in the colony facility, and the first time the experimental subjects ever encountered them was when they entered the compartment where they were contained. During this session, mice were weighed, administered the same injection as the day before, and returned to their home cage for a 30 min pretreatment period. Mice were then introduced into the T-junction and allowed to explore both preference compartments for 15 minutes. Social novelty tests always occurred on Thursdays or Fridays to prevent any weekend testing.
# BTBR mice [4] = assay: Novelty preference test, BTBR; conditions: all tested doses IP
# Description: as §5, with “At the end of the week (upon completion of all phases of the procedure), each apparatus was disassembled and all parts were sanitized. No food or water were available during social preference sessions, but were available in the home cage immediately afterwards.” left out
# C57 mice [5] = assay: Sociability test, C57
# Description: as §5
# A single sociability session occurred the day after the novelty preference test, where one compartment contained a wire mesh cup with a dummy mouse inside while the other compartment contained a male NIH Swiss stranger mouse inside the previously empty cup. […] The position of the dummy mouse (left or right compartment) remained the same for each subject as during the novelty test the day before, thereby counterbalancing the position of the stranger mouse across subjects. NIH Swiss stranger mice were similar in mass and appearance to the dummy PVC mice, and were housed separately from the experimental subjects (C57 and BTBR mice) in the colony facility. The first time the experimental subjects ever encountered the stranger mice was when they entered the compartment where they were contained. During this session, mice were weighed, administered the same injection as the day before, and returned to their home cage for a 30 min pretreatment period. Mice were then introduced into the T-junction and allowed to explore both preference compartments for 15 minutes. Sociability tests always occurred on Wednesdays or Thursdays to prevent any weekend testing.
# C57 mice [6] = assay: Radiotelemetry of core temperature, C57
# Description: as §1, §2, §3, §4
# [7] = 3.0 mg/kg IP, listed as racemic (50/50) MDMA, 3 mg/kg
smiles,measurement,setting,value
"CN[C@@H](C)Cc1ccc2c(c1)OCO2 [S(+)-MDMA, (2S)-1-(1,3-benzodioxol-5-yl)-N-methylpropan-2-amine]",effect on core temperature,"BTBR mice [1]; 10 mg/kg IP, 10 mg/kg",elicited a similar increase in temperature
same,effect on core temperature,"BTBR mice [1]; 10 mg/kg IP, listed as S-MDMA, 10 mg/kg",did not differ much from that observed with Racemic MDMA
same,jump in core temperature,BTBR mice [1]; 18 mg/kg i.p,greater than that observed by administration of 56 mg/kg i.p of Racemic MDMA
same,effect on core temperature,"BTBR mice [1]; 30 mg/kg IP, 30 mg/kg",elicited a large hyperthermic response
same,effect on core temperature,"BTBR mice [1]; 30 mg/kg IP, listed as S-MDMA, 30 mg/kg",strong hyperthermic response
same,effect on core temperature,BTBR mice [1]; various/increasing doses IP,dose dependent increase in temperature
same,effect on core temperature,"BTBR mice [1]; various/increasing doses IP, listed as S-MDMA",dose-dependent increase in temperature
same,social novelty preference (new stranger mouse vs familiar mouse),BTBR mice [2]; 3.0 mg/kg IP,elicited a strong preference for the stranger mouse
same,social novelty preference (new stranger mouse vs familiar mouse),C57 mice [3]; 3.0 mg/kg IP,not different from saline
same,social novelty preference (new stranger mouse vs familiar mouse),C57 mice [3]; 3.0 mg/kg and 5.6 mg/kg IP,does not elicit any substantial preference for the stranger mouse
same,social novelty preference (new stranger mouse vs familiar mouse),C57 mice [3]; various doses IP,no systematic effects on social novelty preference
same,novelty preference (time spent with the dummy mouse),BTBR mice [4],No dose of racemic MDMA (e.g comparative composition 1) or S(+)-MDMA (e.g comparative composition 3) elicited any effects on novelty preference
same,sociability (time spent with the stranger mouse vs dummy),C57 mice [5]; 3.0 mg/kg IP,not different from saline
same,sociability (time spent with the stranger mouse vs dummy),C57 mice [5]; various doses IP,no systematic effects on sociability
same,effect on core temperature,C57 mice [6]; 10 mg/kg IP,elicited an increase in temperature
same,jump in core temperature,C57 mice [6]; 18 mg/kg i.p,greater than that observed by administration of 56 mg/kg i.p of Racemic MDMA
same,effect on core temperature,C57 mice [6]; 30 mg/kg IP,elicits significant hyperthermia
same,lethality during core temperature recording,C57 mice [6]; approximately 5-8 hrs after injection,one animal experiencing profound hypothermia before expiring
same,effect on core temperature,C57 mice [6]; various/increasing doses IP,dose-dependent increase in temperature
"CNC(C)Cc1ccc2c(c1)OCO2 (racemic) [racemic MDMA, 1-(1,3-benzodioxol-5-yl)-N-methylpropan-2-amine]",effect on core temperature,BTBR mice [1]; 30 mg/kg IP,results in an increase in temperature but is not as significant as S-MDMA
same,rise in core temperature,BTBR mice [1]; 56 mg/kg IP,~2 degrees C.
same,effect on core temperature,BTBR mice [1]; various/increasing doses IP,gradual increase in core temperature
same,effect on core temperature,"BTBR mice [1]; various/increasing doses IP, listed as racemic compositions of MDMA",dose dependent increase in temperature
same,social novelty preference (new stranger mouse vs familiar mouse),BTBR mice [2]; all doses IP,exhibiting preferences for the stranger mouse
same,social novelty preference (new stranger mouse vs familiar mouse),"C57 mice [3]; 3.0 mg/kg IP, 3 mg/kg",strong preference for the stranger over the now familiar mouse
same,social novelty preference (new stranger mouse vs familiar mouse),C57 mice [3]; [7],elicit significant effects on sociability
same,social novelty preference (new stranger mouse vs familiar mouse),C57 mice [3]; various doses IP,dose-dependent increase in time spent with the stranger mouse
same,social novelty preference (new stranger mouse vs familiar mouse),"C57 mice [3]; various doses IP, listed as Racemic MDMA","bi-phasic dose-response preference for stranger mouse over familiar mouse, with maximum preference documented at 3 mg/kg dose"
same,novelty preference (time spent with the dummy mouse),BTBR mice [4],No dose of racemic MDMA (e.g comparative composition 1) or S(+)-MDMA (e.g comparative composition 3) elicited any effects on novelty preference
same,sociability (time spent with the stranger mouse vs dummy),"C57 mice [5]; 3.0 mg/kg IP, 3 mg/kg",moderate preference for the stranger over the dummy
same,sociability (time spent with the stranger mouse vs dummy),C57 mice [5]; [7],elicit significant effects on sociability
same,sociability (time spent with the stranger mouse vs dummy),C57 mice [5]; various doses IP,dose-dependent increase in time spent with the stranger mouse
same,effect on core temperature,C57 mice [6]; 10 mg/kg IP,induced a drop in core temperature
same,rise in core temperature,C57 mice [6]; 56 mg/kg IP,~2 degrees C.
same,effect on core temperature,C57 mice [6]; various/increasing doses IP,gradual increase in core temperature
